Measurements reported in US12122752B1, “5-(2,4,5-tris(4-chlorophenyl)-1H-imidazol-1-yl)pentanoic acid as an antimicrobial compound” (KING FAISAL UNIVERSITY, priority 2023, dated 2024).

Assays:
Format in all cases: cell-based
[1] = system: Bacillus Cereus; assay: Agar plate disc-diffusion, antibacterial activity by inhibition zone; details: gram positive, nutrient agar, 37° C., 48 hours
Procedure: (§1) The agar plate disc-diffusion method was applied. […] The discs were then placed onto the surface of agar plates (nutrient agar for bacteria and Sabouraud's dextrose agar for fungi) seeded with the test organism. Each plate contained 15 mL of the agar medium, previously seeded with 0.2 mL of the broth culture of each organism pregrown for 18 hours. The plates were incubated at 37° C. for 48 hours, and 72 hours for fungi. The inhibition zones was measured in mm. Discs impregnated with DMSO were used as a control, and its inhibition zone was subtracted from the tested compound actual inhibition zone.
(§2) Their antibacterial screened against gram positive bacteria namely Bacillus cereus and Staphylococcus aureus and gram-negative bacterial strains namely Pseudomonas aeruginosa and Escherichia coli, while their antifungal activity screened against Aspergillus flavus and Chrysosporium keratinophilum as shown in Table 1 and 2.

[2] = system: Escherichia coli; assay: as above; details: gram negative, nutrient agar, 37° C., 48 hours
Procedure: as §1, §2

[3] = system: Pseudomonas aeruginosa; assay: as above; details: gram negative, nutrient agar, 37° C., 48 hours
Procedure: as §1, §2

[4] = system: Staphylococcus aureus; assay: as above; details: gram positive, nutrient agar, 37° C., 48 hours
Procedure: as §1, §2

[5] = system: Aspergillus flavus; assay: Agar plate disc-diffusion, antifungal activity by inhibition zone; details: Sabouraud's dextrose agar, 72 hours
Procedure: (§3) The agar plate disc-diffusion method was applied. Sterilized filter papers (6 mm in diameter) were wetted with 10 μL of a solution of 5-(2,4,5-tris(4-chlorophenyl)-1H-imidazol-1-yl)pentanoic acid (V) to be tested, containing 10 mg/mL in DMSO, and the discs were allowed to air dry. The discs were then placed onto the surface of agar plates (nutrient agar for bacteria and Sabouraud's dextrose agar for fungi) seeded with the test organism. Each plate contained 15 mL of the agar medium, previously seeded with 0.2 mL of the broth culture of each organism pregrown for 18 hours. The plates were incubated at 37° C. for 48 hours, and 72 hours for fungi. The inhibition zones was measured in mm. Discs impregnated with DMSO were used as a control, and its inhibition zone was subtracted from the tested compound actual inhibition zone.
as §2

[6] = system: Chrysosporium keratinophilum; assay: as above; details: Sabouraud's dextrose agar, 72 hours
Procedure: as §3, §2

[7] = system: different microbes; assay: Antimicrobial testing, overall statement; details: summary in words of Tables 1 and 2
Procedure: as §3, §2

[8] = A = concentration of comp. = 10,000 μL
[9] = B = concentration of comp. = 30,000 μL
[10] = C = concentration of comp. = 50,000 μL

| Structure (SMILES) | inhibition zone [1, 8] [mm] | inhibition zone [1, 9] [mm] | inhibition zone [1, 10] [mm] | inhibition zone [2, 8] [mm] | inhibition zone [2, 9] [mm] | inhibition zone [2, 10] [mm] | inhibition zone [3, 8] [mm] | inhibition zone [3, 9] [mm] | inhibition zone [3, 10] [mm] | inhibition zone [4, 8] [mm] | inhibition zone [4, 9] [mm] | inhibition zone [4, 10] [mm] | inhibition zone [5, 8] [mm] | inhibition zone [5, 9] [mm] | inhibition zone [5, 10] [mm] | inhibition zone [6, 8] [mm] | inhibition zone [6, 9] [mm] | inhibition zone [6, 10] [mm] | antimicrobials activities against different microbes [7] |
| --- | --- | --- | --- | --- | --- | --- | --- | --- | --- | --- | --- | --- | --- | --- | --- | --- | --- | --- | --- |
| O=C(O)CCCCn1c(-c2ccc(Cl)cc2)nc(-c2ccc(Cl)cc2)c1-c1ccc(Cl)cc1 [V, 5-(2,4,5-tris(4-chlorophenyl)-1H-imidazol-1-yl)pentanoic acid] | 23 | 25 | 37 | 27 | 35 | 50 | 25 | 30 | 43 | 18 | 22 | 33 | 17 | 22 | 31 | 25 | 28 | 46 | excellent |
| O=C(O)c1cn(C2CC2)c2cc(N3CCNCC3)c(F)cc2c1=O [Cip., reference compound] | 29 | 31 | 42 | 30 | 39 | 60 | 29 | 30 | 53 | 42 | 44 | 53 | 29 | 32 | 42 | 29 | 30 | 53 |  |
